# Patent publication US20070128217A1 (priority 2003, published 2007)
# What was measured:
# [1] = tested on: antibodies in sera from SARS patients (sera 1a, 1b, 2, 6, 37, 62, London, SARS-yellow, SARS-green); type: binding, human; parameters: Binding of serum 6 to linear peptides of protein X1 of SARS-CoV Urbani / Binding of serum 37 to linear peptides of protein X1 of SARS-CoV Urbani / Binding of serum 6 to looped/cyclic peptide (PEPSCAN-ELISA) / Binding of serum 37 to looped/cyclic peptide (PEPSCAN-ELISA) / Binding of serum 37 to looped/cyclic peptides of protein X1 of SARS-CoV Urbani / Binding of serum 6 to linear peptides of protein X2 / Binding of serum 37 to linear peptides of protein X2 / Binding of serum 37 to looped/cyclic peptides of protein X2 of SARS-CoV Urbani / Binding of serum 6 to linear peptides of protein M of SARS-CoV Urbani / Binding of serum 37 to linear peptides of protein M of SARS-CoV Urbani / Binding of serum 6 to looped/cyclic peptides of protein M of SARS-CoV Urbani / Binding of serum 37 to looped/cyclic peptides of protein M of SARS-CoV Urbani / Binding of serum 6 to linear peptides of protein X3 of SARS-CoV Urbani / Binding of serum 37 to linear peptides of protein X3 of SARS-CoV Urbani / Binding of serum 37 to looped/cyclic peptides of protein X3 of SARS-CoV Urbani / Binding of serum 6 to linear peptides of protein X4 of SARS-CoV Urbani / Binding of serum 37 to linear peptides of protein X4 of SARS-CoV Urbani / Binding of serum 37 to looped/cyclic peptides of protein X4 of SARS-CoV Urbani / Binding of serum 6 to linear peptides of protein X5 of SARS-CoV Urbani / Binding of serum 37 to linear peptides of protein X5 of SARS-CoV Urbani / Binding of serum 37 to looped/cyclic peptides of protein X5 of SARS-CoV Urbani / Binding of serum 6 to linear peptides of protein N of SARS-CoV Urbani / Binding of serum 37 to linear peptides of protein N of SARS-CoV Urbani / Binding of serum 6 to linear peptide (PEPSCAN-ELISA) / Binding of serum 1a to looped/cyclic peptides of protein N of SARS-CoV Urbani / Binding of serum 1b to looped/cyclic peptides of protein N of SARS-CoV Urbani / Binding of serum 2 to looped/cyclic peptides of protein N of SARS-CoV Urbani / Binding of serum 6 to looped/cyclic peptides of protein N of SARS-CoV Urbani / Binding of serum 37 to looped/cyclic peptides of protein N of SARS-CoV Urbani / Binding of serum 62 to looped/cyclic peptides of protein N of SARS-CoV Urbani / Binding of serum London to looped/cyclic peptides of protein N of SARS-CoV Urbani / Binding of serum SARS-green to looped/cyclic peptides of protein N of SARS-CoV Urbani: unit not given here
# [2] = tested on: control sera (pooled serum of ten healthy LUMC hospital workers; commercial negative donor pooled serum from the Dutch bloodbank); type: binding, human; parameters: Binding of Control serum LUMC to linear peptides / Binding of Control serum Blood-bank to linear peptides / Binding of Control serum LUMC to looped peptides / Binding of Control Serum Blood-Bank to Looped peptides / Binding of Control serum LUMC to linear peptides of the protein M of SARS-CoV Urbani / Binding of Control serum Blood-bank to linear peptides of the protein M of SARS-CoV Urbani / Binding of Control serum LUMC to looped peptides of the protein M of SARS-CoV Urbani / Binding of Control Serum Blood-Bank to Looped peptides of the protein M of SARS-CoV Urbani: unit not given here
# [3] = tested on: rabbit serum obtained by immunizing a rabbit with the SARS-CoV strain Frankfurt 1; type: binding; parameters: Binding of a rabbit serum to linear peptides / Binding of a rabbit serum to looped peptides / Rabbit serum linear peptides / Rabbit serum looped peptides / Binding of a rabbit serum to linear peptides of protein N of SARS-CoV Urbani (Rabbit serum linear peptides) / Binding of a rabbit serum to looped/cyclic peptides of protein N of SARS-CoV Urbani (Rabbit serum looped peptides): unit not given here
sequence,measurement,setting,value
VTEGDGISTPKLKED,Binding of serum 1a to linear peptides of protein X1 of SARS-CoV Urbani,[1],0.5
same,Binding of serum 1a to looped/cyclic peptides of protein X1 of SARS-CoV Urbani,[1],0.3
same,Binding of serum 1b to linear peptides of protein X1 of SARS-CoV Urbani,[1],0.4
same,Binding of serum 1b to looped/cyclic peptides of protein X1 of SARS-CoV Urbani,[1],0.2
same,Binding of serum 2 to linear peptides of protein X1 of SARS-CoV Urbani,[1],0.3
same,Binding of serum 2 to looped/cyclic peptides of protein X1 of SARS-CoV Urbani,[1],0.1
same,Binding of serum 6 to linear peptides of protein X1 of SARS-CoV Urbani,[1],0.3
same,Binding of serum 6 to looped/cyclic peptides of protein X1 of SARS-CoV Urbani,[1],0.1
same,Binding of serum 37 to linear peptides of protein X1 of SARS-CoV Urbani,[1],0.4
same,Binding of serum 37 to looped/cyclic peptides of protein X1 of SARS-CoV Urbani,[1],0.3
same,Binding of serum 62 to linear peptides of protein X1 of SARS-CoV Urbani,[1],0.3
same,Binding of serum 62 to looped/cyclic peptides of protein X1 of SARS-CoV Urbani,[1],0.3
same,Binding of serum London to linear peptides of protein X1 of SARS-CoV Urbani,[1],0.3
same,Binding of serum London to looped/cyclic peptides of protein X1 of SARS-CoV Urbani,[1],0.2
same,Binding of serum SARS-green to linear peptides of protein X1 of SARS-CoV Urbani,[1],0.1
same,Binding of serum SARS-green to looped/cyclic peptides of protein X1 of SARS-CoV Urbani,[1],0.1
same,Binding of serum SARS-yellow to linear peptides of protein X1 of SARS-CoV Urbani,[1],0.2
same,Binding of serum SARS-yellow to looped/cyclic peptides of protein X1 of SARS-CoV Urbani,[1],0.1
same,Binding of Control Serum Blood-Bank to Looped peptides,[2],0.3
same,Binding of Control serum Blood-bank to linear peptides,[2],0.2
same,Binding of Control serum LUMC to linear peptides,[2],0.2
same,Binding of Control serum LUMC to looped peptides,[2],0.3
same,Binding of a rabbit serum to linear peptides,[3],0.0
same,Binding of a rabbit serum to looped peptides,[3],0.4
VTIAEILIIIMRTFR,Binding of serum 1a to linear peptides of protein X3 of SARS-CoV Urbani,[1],0.7
same,Binding of serum 1a to looped/cyclic peptides of protein X3 of SARS-CoV Urbani,[1],0.7
same,Binding of serum 1b to linear peptides of protein X3 of SARS-CoV Urbani,[1],0.3
same,Binding of serum 1b to looped/cyclic peptides of protein X3 of SARS-CoV Urbani,[1],0.4
same,Binding of serum 2 to linear peptides of protein X3 of SARS-CoV Urbani,[1],0.7
same,Binding of serum 2 to looped/cyclic peptides of protein X3 of SARS-CoV Urbani,[1],0.7
same,Binding of serum 6 to linear peptides of protein X3 of SARS-CoV Urbani,[1],0.7
same,Binding of serum 6 to looped/cyclic peptides of protein X3 of SARS-CoV Urbani,[1],0.7
same,Binding of serum 37 to linear peptides of protein X3 of SARS-CoV Urbani,[1],0.4
same,Binding of serum 37 to looped/cyclic peptides of protein X3 of SARS-CoV Urbani,[1],0.6
same,Binding of serum 62 to linear peptides of protein X3 of SARS-CoV Urbani,[1],0.6
same,Binding of serum 62 to looped/cyclic peptides of protein X3 of SARS-CoV Urbani,[1],0.5
same,Binding of serum London to linear peptides of protein X3 of SARS-CoV Urbani,[1],0.6
same,Binding of serum London to looped/cyclic peptides of protein X3 of SARS-CoV Urbani,[1],0.3
same,Binding of serum SARS-green to linear peptides of protein X3 of SARS-CoV Urbani,[1],0.5
same,Binding of serum SARS-green to looped/cyclic peptides of protein X3 of SARS-CoV Urbani,[1],0.2
same,Binding of serum SARS-yellow to linear peptides of protein X3 of SARS-CoV Urbani,[1],0.3
same,Binding of serum SARS-yellow to looped/cyclic peptides of protein X3 of SARS-CoV Urbani,[1],0.6
same,Binding of Control Serum Blood-Bank to Looped peptides of the protein X3 of SARS-CoV Urbani,[2],0.8
same,Binding of Control serum Blood-bank to linear peptides of the protein X3 of SARS-CoV Urbani,[2],0.8
same,Binding of Control serum LUMC to linear peptides of the protein X3 of SARS-CoV Urbani,[2],0.6
same,Binding of Control serum LUMC to looped peptides of the protein X3 of SARS-CoV Urbani,[2],0.8
same,Rabbit serum linear peptides,[3],0.2
same,Rabbit serum looped peptides,[3],0.4
VTIYSHLLLVAAGME,Binding of serum 1a to linear peptides of protein X1 of SARS-CoV Urbani,[1],0.8
same,Binding of serum 1a to looped/cyclic peptide (PEPSCAN-ELISA),[1],0.5
same,Binding of serum 1b to linear peptides of protein X1 of SARS-CoV Urbani,[1],0.7
same,Binding of serum 1b to looped/cyclic peptide (PEPSCAN-ELISA),[1],0.4
same,Binding of serum 2 to linear peptides of protein X1 of SARS-CoV Urbani,[1],0.5
same,Binding of serum 2 to looped/cyclic peptide (PEPSCAN-ELISA),[1],0.5
same,Binding of serum 6 to linear peptides of protein X1 of SARS-CoV Urbani,[1],0.4
same,Binding of serum 6 to looped/cyclic peptide (PEPSCAN-ELISA),[1],0.3
same,Binding of serum 37 to linear peptides of protein X1 of SARS-CoV Urbani,[1],0.6
same,Binding of serum 37 to looped/cyclic peptide (PEPSCAN-ELISA),[1],0.5
same,Binding of serum 62 to linear peptides of protein X1 of SARS-CoV Urbani,[1],0.6
same,Binding of serum 62 to looped/cyclic peptide (PEPSCAN-ELISA),[1],0.4
same,Binding of serum London to linear peptides of protein X1 of SARS-CoV Urbani,[1],0.3
same,Binding of serum London to looped/cyclic peptide (PEPSCAN-ELISA),[1],0.2
same,Binding of serum SARS-green to linear peptides of protein X1 of SARS-CoV Urbani,[1],0.3
same,Binding of serum SARS-green to looped/cyclic peptide (PEPSCAN-ELISA),[1],0.3
same,Binding of serum SARS-yellow to linear peptides of protein X1 of SARS-CoV Urbani,[1],0.6
same,Binding of serum SARS-yellow to looped/cyclic peptide (PEPSCAN-ELISA),[1],0.3
same,Binding of Control Serum Blood-Bank to Looped peptides,[2],0.4
same,Binding of Control serum Blood-bank to linear peptides,[2],0.5
same,Binding of Control serum LUMC to linear peptides,[2],0.5
same,Binding of Control serum LUMC to looped peptides,[2],0.6
same,Binding of a rabbit serum to linear peptides,[3],0.1
same,Binding of a rabbit serum to looped peptides,[3],0.5
